These are literature values, as cited in patent US12329730B2, “Thermoresponsive hydrogel containing polymer microparticles for controlled drug delivery” (UNIVERSITY OF PITTSBURGH—OF THE COMMONWEALTH SYSTEM OF …, priority 2017, dated 2025).

Converted amounts (≈) assume the structure as drawn.

The series concerns Streptococcus pneumoniae and Haemophilus influenzae. The conditions noted are these: Jacobs et al. 1999.

Turning to `O=C(O)c1cn(C2CC2)c2cc(N3CCNCC3)c(F)cc2c1=O` [ciprofloxacin], the “minimum inhibitory concentration (MIC)” value is 2 µg/mL (≈ 6.04 µM).
